One experiment addresses T1, human NHE3 (Homo sapiens, UniProt P48764).
T1 construct: expressed in transfected cells; host or cells: OK26 cells (opossum kidney OK cells); OK26 ND sublines with opNHE1 reduced by 90% for A3
T1 sequence (P48764 26-834): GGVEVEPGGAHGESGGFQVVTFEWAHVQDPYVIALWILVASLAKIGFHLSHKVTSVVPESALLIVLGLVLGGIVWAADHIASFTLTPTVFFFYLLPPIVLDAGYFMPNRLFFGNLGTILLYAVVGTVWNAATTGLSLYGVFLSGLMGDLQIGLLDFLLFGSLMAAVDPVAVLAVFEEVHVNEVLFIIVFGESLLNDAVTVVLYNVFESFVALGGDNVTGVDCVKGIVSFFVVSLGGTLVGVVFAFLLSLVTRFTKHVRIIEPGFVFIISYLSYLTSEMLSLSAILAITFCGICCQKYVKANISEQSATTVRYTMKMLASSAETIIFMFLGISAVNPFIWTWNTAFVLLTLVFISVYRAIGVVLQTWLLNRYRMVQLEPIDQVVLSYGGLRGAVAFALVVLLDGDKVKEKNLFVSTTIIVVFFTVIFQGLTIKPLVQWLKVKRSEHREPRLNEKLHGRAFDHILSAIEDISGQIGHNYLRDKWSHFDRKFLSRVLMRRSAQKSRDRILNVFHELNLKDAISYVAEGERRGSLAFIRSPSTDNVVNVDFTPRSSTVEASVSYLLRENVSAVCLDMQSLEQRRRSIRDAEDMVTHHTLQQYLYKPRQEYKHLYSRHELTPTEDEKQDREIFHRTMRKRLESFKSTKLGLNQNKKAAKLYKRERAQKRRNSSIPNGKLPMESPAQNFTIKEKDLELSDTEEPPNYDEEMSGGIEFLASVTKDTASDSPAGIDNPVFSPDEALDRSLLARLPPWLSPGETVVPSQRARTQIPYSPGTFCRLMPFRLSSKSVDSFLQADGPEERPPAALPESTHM
Kind of experiment: Improved version of measurements of NHE3 inhibitory activities (OK26 ND cell lines). The format is cell-based. As to conditions: OK26 ND cell lines (opNHE1 expression reduced by 90%), measurement time 8 minutes at 26° C.; read-out: hNHE3 IC50. As to the method:
Pharmacological Test Example 3: Improved Version of Measurements of NHE3 Inhibitory Activities
OK26 cells express endogeneous NHE1 (opNHE1). In order to evaluate NHE3 inhibitory activities more precisely, OK26 ND cell lines in which the expression level of opNHE1 is reduced by 90% were established. Measurements of NEE inhibitory activities were carried out by using the established cell lines in the same manner as described in Pharmacological Test Example 1 except that the measurement time was 8 minutes (at 26° C.) to calculate more precise NHE3 inhibitory activities.

Another experiment has as its target T2, NHE1 (Homo sapiens, UniProt P19634).
T2 construct: HLF cells (Human hepatoma cell line) were used as cells for the test; endogenous in cells; host or cells: HLF cells (human hepatoma cell line)
As to the kind of experiment: Measurements of NHE1 inhibitory activities (HLF cells, BCECF pH recovery). The format is cell-based. The settings on record: HLF cells (human hepatoma cell line), measured after 10 minutes; read-out: hNHE1 IC50. As to the method:
Pharmacological Test Example 1: Measurements of NHE1 Inhibitory Activities
HLF cells (Human hepatoma cell line) were used as cells for the test. After 1×10^4 cells/well were seeded to a 96-well plate and cultured for 3 days, they were cultured overnight under a serum-free medium. Then, the cells were incubated in a stain solution of Tetramethylammonium (TMA) Buffer (130 mM TMA-C1, 5 mM KCl, 2 mM CaCl2, 1 mM MgSO2, 25 mM glucose, 20 mM HEPES; pH 7.4) containing 40 mM NH4Cl and 1 μg/mL pH-sensitive fluorescent indicator BCECF-AM at 37° C. for 40 minutes and then BCECF was introduced into the cells. After the cells were washed once with TMA Buffer and incubated in TMA+40 mM NH4Cl solution at 37° C. for 15 minutes, the solution was removed and 20 μL/well of TMA Buffer and 10 μL/well of each test compound solution prepared with TMA Buffer were added to each well. The measurements were carried out by adding 200 μL/well of Na Buffer (130 mM, NaCl, 5 mM KCl, 2 mM CaCl2, 1 mM MgSO2, 1 mM NaH2PO4, 25 mM glucose, 20 mM HEPES; pH 7.4) or TMA Buffer (for base measurement), immediately placing it on FlexStation (Molecular Device) and then, after 10 minutes, measuring, it the two wavelengths of 505 nm (excitation wavelength)/530 nm (emission wavelength) (measurement value) and 440 nm (excitation wavelength)/530 nm (emission wavelength) (isosbestic point value). A NHE activity was calculated by dividing a measurement value by an isosbestic point value and a NHE1 inhibitory activity was calculated by the following equation. NHE1 inhibitory activity (%)=100×(1−(Measurement value [addition of each compound]−Base [addition of TMA Buffer])/(Control [addition of Na Buffer]−Base [addition of TMA Buffer]))

T2 sequence (P19634 whole entry): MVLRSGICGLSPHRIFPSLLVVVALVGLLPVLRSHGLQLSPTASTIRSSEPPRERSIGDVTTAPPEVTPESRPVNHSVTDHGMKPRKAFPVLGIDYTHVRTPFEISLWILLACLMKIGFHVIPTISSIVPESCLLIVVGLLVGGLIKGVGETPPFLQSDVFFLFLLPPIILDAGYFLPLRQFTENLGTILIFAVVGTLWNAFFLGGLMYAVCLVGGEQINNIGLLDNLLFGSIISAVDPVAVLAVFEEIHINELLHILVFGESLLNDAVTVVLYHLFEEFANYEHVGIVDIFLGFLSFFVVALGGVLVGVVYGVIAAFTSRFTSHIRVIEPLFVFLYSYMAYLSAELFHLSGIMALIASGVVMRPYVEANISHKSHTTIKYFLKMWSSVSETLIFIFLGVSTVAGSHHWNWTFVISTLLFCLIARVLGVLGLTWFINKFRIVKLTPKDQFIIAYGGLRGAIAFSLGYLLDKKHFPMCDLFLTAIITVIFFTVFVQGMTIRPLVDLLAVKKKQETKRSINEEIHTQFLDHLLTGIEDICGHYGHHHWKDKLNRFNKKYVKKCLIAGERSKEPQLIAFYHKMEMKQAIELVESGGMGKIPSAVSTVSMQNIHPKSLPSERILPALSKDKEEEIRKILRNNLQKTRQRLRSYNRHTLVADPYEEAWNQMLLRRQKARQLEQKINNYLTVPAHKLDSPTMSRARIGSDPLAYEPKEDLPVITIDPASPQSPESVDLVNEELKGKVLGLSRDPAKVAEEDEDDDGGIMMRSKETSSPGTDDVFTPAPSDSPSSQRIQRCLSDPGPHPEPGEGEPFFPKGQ

For `C/C(=C\c1ccccc1-c1ccc(CO)cc1)C(=O)NC(=N)N` [Example 6, N-[(E)-3-(4′-hydroxymethyl-biphenyl-2-yl)-2-methyl-acryloyl]-guanidine], the IC50 at human NHE3 came out at 400 nM.

On to `COc1cc(-c2ccccc2/C=C(\C)C(=O)NC(=N)N)ccc1O` [Example 23, N-[(E)-3-(4′-hydroxy-3′-methoxy-biphenyl-2-yl)-2-methyl-acryloyl]guanidine], for which the results for the IC50 on NHE1 and at human NHE3 were 2600 nM and 610 nM, respectively.

For `C/C(=C\c1ccccc1-c1ccc(O)cc1O)C(=O)NC(=N)N` [Example 53, N-[(E)-3-(2′,4′-hydroxy-2-yl)-2-methyl-acryloyl]-guanidine], the half-maximal inhibitory concentration (IC50) on NHE1 worked out at 2900 nM; at human NHE3, 740 nM.

As for `C/C(=C\c1ccccc1-c1cccc(C(=O)NO)c1)C(=O)NC(=N)N` [Example 55, (E)-2′-(3-guanidino-2-methyl-3-oxo-propenyl)-biphenyl-3-carboxylic acid hydroxyamide], the figures for the IC50 at NHE1 and at human NHE3 were 2900 nM and 440 nM, respectively.

As to `C/C(=C\c1ccccc1-c1ccc(C(=N)N)cc1)C(=O)NC(=N)N` [Example 56, (E)-2′-(3-guanidino-2-methyl-3-oxo-propenyl)-biphenyl-4-carboxamidine], the IC50 on NHE1 was 3400 nM; at human NHE3, 400 nM.

Turning to `C/C(=C\c1ccccc1-c1ccc(C(=N)N)cc1C)C(=O)NC(=N)N` [Example 57, (E)-2′-(3-guanidino-2-methyl-3-oxo-propenyl)-2-methyl-biphenyl-4-carboxamidine], the IC50 at NHE1 is 1100 nM; at human NHE3 it was 100 nM.

As for `C/C(=C\c1ccccc1-c1ccc(C(=N)N)c(F)c1)C(=O)NC(=N)N` [Example 58, (E)-3-fluoro-2′-(3-guanidino-2-methyl-3-oxo-propenyl)-biphenyl-4-carboxamidine], the IC50 on NHE1 was 200 nM; at human NHE3 it was 9 nM.

As for `C/C(=C\c1ccccc1-c1ccc(O)cc1F)C(=O)NC(=N)N` [Example 59, N-[(E)-3-(2′-fluoro-4′-hydroxy-biphenyl-2-yl)-2-methyl-acryloyl]-guanidine], the IC50 on NHE1 was found to be 3200 nM; at human NHE3, 280 nM.

For `C/C(=C\c1ccccc1-c1ccc(O)cc1Cl)C(=O)NC(=N)N` [Example 60, N-[(E)-3-(2′-chloro-4′-hydroxy-biphenyl-2-yl)-2-methyl-acryloyl]-guanidine], the IC50 is 910 nM on NHE1 and 310 nM on human NHE3.

As for `C/C(=C\c1ccccc1-c1ccc(O)c(C)c1)C(=O)NC(=N)N` [Example 61, N-[(E)-3-(4′-hydroxy-3′-methyl-biphenyl-2-yl)-2-methyl-acryloyl]-guanidine], the IC50 at NHE1 was 4300 nM; on human NHE3, 400 nM.

For `C/C(=C\c1ccc(C)cc1-c1ccc(O)c(F)c1)C(=O)NC(=N)N` [Example 62, N-[(E)-3-(3′-fluoro-4′-hydroxy-5-methylbiphenyl-2-yl)-2-methyl-acryloyl]-guanidine], the IC50 turned out to be 1300 nM at NHE1 and 92 nM at human NHE3.

As to `C/C(=C\c1ccc(C)cc1-c1ccc(F)c(O)c1)C(=O)NC(=N)N` [Example 63, N-[(E)-3-(4′-fluoro-3′-hydroxy-5-methyl-biphenyl-2-yl)-2-methyl-acryloyl]-guanidine], the IC50 at NHE1 worked out at 9900 nM; at human NHE3, 330 nM.

Turning to `C/C(=C\c1ccc(Oc2ccc(S(N)(=O)=O)cc2)cc1-c1cccc(O)c1)C(=O)NC(=N)N` [Example 64, 4-[(E)-6-(3-guanidino-2-methyl-3-oxo-propenyl)-3′-hydroxy-biphenyl-3-yloxy]-benzenesulfonamide], the results for the IC50 on NHE1 and at human NHE3 were 1300 nM and 150 nM, respectively.

In the case of `C/C(=C\c1ccc(Oc2ccc(S(N)(=O)=O)cc2)cc1-c1ccc(O)cc1)C(=O)NC(=N)N` [Example 65, 4-[(E)-6-(3-guanidino-2-methyl-3-oxo-propenyl)-4′-hydroxy-biphenyl-3-yloxy]-benzenesulfonamide], the IC50 on NHE1 came to 1500 nM; on human NHE3 it was 210 nM.

For `COc1cc(-c2cc(C)ccc2/C=C(\C)C(=O)NC(=N)N)ccc1O` [Example 66, N-[(E)-3-(4′-hydroxy-3′-methoxy-5-methyl-biphenyl-2-yl)-2-methyl-acryloyl]-guanidine], the IC50 on human NHE3 came to 130 nM.

`C/C(=C\c1cccc(C)c1-c1ccc(O)cc1)C(=O)NC(=N)N` [Example 67, N-[(E)-3-(4′-hydroxy-6-methyl-biphenyl-2-yl)-2-methyl-acryloyl]-guanidine]: the IC50 on NHE1 came to 2100 nM; on human NHE3 it was 120 nM.

Regarding `C/C(=C\c1cccc(C)c1-c1cccc(O)c1)C(=O)NC(=N)N` [Example 68, N-[(E)-3-(3′-hydroxy-6-methyl-biphenyl-2-yl)-2-methyl-acryloyl]-guanidine], the IC50 at NHE1 came to 1700 nM; at human NHE3 it was 120 nM.

Turning to `C/C(=C\c1ccc(C)cc1-c1ccc(O)c(O)c1)C(=O)NC(=N)N` [Example 69, N-[(E)-3-(3′,4′-dihydroxy-5-methyl-biphenyl-2-yl)-2-methyl-acryloyl]-guanidine], the results for the IC50 on NHE1 and at human NHE3 were 580 nM and 100 nM, respectively.

Turning to `C/C(=C\c1c(Br)cccc1-c1ccc(O)cc1)C(=O)NC(=N)N` [Example 70, N-[(E)-3-(3-bromo-4′-hydroxy-biphenyl-2-yl)-2-methyl-acryloyl]-guanidine], the IC50 on human NHE3 stood at 960 nM.

With `COc1ccc(/C=C(\C)C(=O)NC(=N)N)c(-c2ccc(O)cc2)c1` [Example 73, N-[(E)-3-(4′-hydroxy-5-methoxy-biphenyl-2-yl)-2-methyl-acryloyl]-guanidine], on human NHE3, the IC50 is 120 nM.

`C/C(=C\c1ccc(-c2ccoc2)cc1)C(=O)NC(=N)N` [Example 85, N-[(E)-3-(4-furan-3-yl-phenyl)-2-methyl-acryloyl]-guanidine]: at human NHE3, the IC50 was determined as 470 nM.

As for `C/C(=C\c1ccc(-c2ccc(O)cc2C)cc1)C(=O)NC(=N)N` [Example 90, N-[(E)-3-(4′-hydroxy-2′-methyl-biphenyl-4-yl)-2-methyl-acryloyl]-guanidine], the IC50 on human NHE3 came to 300 nM.

`C/C(=C\c1ccc(-c2cc(O)ccc2F)cc1)C(=O)NC(=N)N` [Example 91, N-[(E)-3-(2′-fluoro-5′-hydroxy-biphenyl-4-yl)-2-methyl-acryloyl]-guanidine]: the IC50 on human NHE3 worked out at 190 nM.

Turning to `C/C(=C\c1ccc(-c2ccc(O)c(O)c2)cc1)C(=O)NC(=N)N` [Example 92, N-[(E)-3-(3′,4′-dihydroxy-biphenyl-4-yl)-2-methyl-acryloyl]-guanidine], the IC50 at human NHE3 is 150 nM.

In the case of `C/C(=C\c1ccc(-c2ccc(CO)cc2)cc1)C(=O)NC(=N)N` [Example 93], the IC50 on human NHE3 was 250 nM.

In the case of `C/C(=C\c1ccc(-c2ccc(O)cc2)cc1C)C(=O)NC(=N)N` [Example 95, N-[(E)-3-(4′-hydroxy-3-methyl-biphenyl-4-yl)-2-methyl-acryloyl]-guanidine], at human NHE3, the IC50 stood at 240 nM.

Consider `C/C(=C\c1ccc(-c2ccc(O)cc2C)cc1C)C(=O)NC(=N)N` [Example 96, N-[(E)-3-(4′-hydroxy-3,2′-dimethyl-biphenyl-4-yl)-2-methyl-acryloyl]-guanidine], for which the IC50 on human NHE3 was 200 nM.

Usually IC50 stands for the concentration that inhibits the measured activity by half.

For the origin of these results see patent US20120088737A2, “NOVEL ACYL GUANIDINE DERIVATIVES” (AJINOMOTO CO., INC, priority 2009, published 2012).
